Data taken from the NIST ThermoML archive (doi:10.1016/j.jct.2015.10.017).
± gives the expanded uncertainty stated by the source.

Experiment: mn = molality of the nth substance listed, in mol/kg
Details: 100 kPa, Liquid, Falling or rolling sphere viscometry

O=P([O-])([O-])O.[K+].[K+] [dipotassium hydrogen phosphate] + O
viscosity [mPa·s]
Details	288.15 K	293.15 K	298.15 K	303.15 K	308.15 K
m1 = 0.01682	1.05 ± 0.21	0.9382 ± 0.19	0.8385 ± 0.17	0.804 ± 0.16	0.7261 ± 0.15
m1 = 0.03476	1.058 ± 0.21	0.9456 ± 0.19	0.8455 ± 0.17	0.8103 ± 0.16	0.7324 ± 0.15
m1 = 0.05442	1.066 ± 0.21	0.9538 ± 0.19	0.8532 ± 0.17	0.8173 ± 0.16	0.7394 ± 0.15
m1 = 0.06215	1.069 ± 0.21	0.957 ± 0.19	0.8562 ± 0.17	0.82 ± 0.16	0.7421 ± 0.15
m1 = 0.08596	1.079 ± 0.22	0.9669 ± 0.19	0.8655 ± 0.17	0.8284 ± 0.17	0.7505 ± 0.15
m1 = 0.1633	1.112 ± 0.22	0.9989 ± 0.2	0.8957 ± 0.18	0.8556 ± 0.17	0.7777 ± 0.16
m1 = 0.2499	1.149 ± 0.23	1.035 ± 0.21	0.9296 ± 0.19	0.8861 ± 0.18	0.8082 ± 0.16
m1 = 0.3088	1.174 ± 0.23	1.059 ± 0.21	0.9526 ± 0.19	0.9068 ± 0.18	0.8289 ± 0.17
m1 = 0.4795	1.246 ± 0.25	1.13 ± 0.23	1.019 ± 0.2	0.9669 ± 0.19	0.889 ± 0.18
m1 = 0.628	1.309 ± 0.26	1.192 ± 0.24	1.077 ± 0.22	1.019 ± 0.2	0.9412 ± 0.19
m1 = 0.7511	1.361 ± 0.27	1.243 ± 0.25	1.126 ± 0.23	1.062 ± 0.21	0.9846 ± 0.2
m1 = 0.8468	1.401 ± 0.28	1.283 ± 0.26	1.163 ± 0.23	1.096 ± 0.22	1.018 ± 0.2
m1 = 0.9565	1.448 ± 0.29	1.328 ± 0.27	1.206 ± 0.24	1.135 ± 0.23	1.057 ± 0.21

O=P([O-])([O-])O.[Na+].[Na+] [disodium hydrogen phosphate] + O
viscosity [mPa·s]
Details	288.15 K	293.15 K	298.15 K	303.15 K	308.15 K
m1 = 0.01669	1.056 ± 0.21	0.9429 ± 0.19	0.8421 ± 0.17	0.806 ± 0.16	0.7281 ± 0.15
m1 = 0.03487	1.069 ± 0.21	0.9556 ± 0.19	0.8532 ± 0.17	0.8146 ± 0.16	0.7367 ± 0.15
m1 = 0.05412	1.084 ± 0.22	0.969 ± 0.19	0.865 ± 0.17	0.8238 ± 0.16	0.7459 ± 0.15
m1 = 0.06194	1.089 ± 0.22	0.9745 ± 0.2	0.8698 ± 0.17	0.8275 ± 0.17	0.7496 ± 0.15
m1 = 0.08565	1.107 ± 0.22	0.9911 ± 0.2	0.8843 ± 0.18	0.8387 ± 0.17	0.7608 ± 0.15
m1 = 0.162	1.164 ± 0.23	1.044 ± 0.21	0.931 ± 0.19	0.8749 ± 0.18	0.797 ± 0.16
m1 = 0.255	1.234 ± 0.25	1.109 ± 0.22	0.9879 ± 0.2	0.9189 ± 0.18	0.841 ± 0.17
m1 = 0.3161	1.28 ± 0.26	1.152 ± 0.23	1.025 ± 0.21	0.9479 ± 0.19	0.87 ± 0.17
m1 = 0.4813	1.404 ± 0.28	1.268 ± 0.25	1.126 ± 0.23	1.026 ± 0.21	0.9483 ± 0.19
m1 = 0.6261	1.513 ± 0.3	1.369 ± 0.27	1.215 ± 0.24	1.095 ± 0.22	1.017 ± 0.2
m1 = 0.7501	1.606 ± 0.32	1.456 ± 0.29	1.291 ± 0.26	1.154 ± 0.23	1.076 ± 0.22
m1 = 0.8501	1.681 ± 0.34	1.525 ± 0.31	1.352 ± 0.27	1.201 ± 0.24	1.123 ± 0.23
m1 = 0.959	1.762 ± 0.35	1.602 ± 0.32	1.419 ± 0.28	1.253 ± 0.25	1.175 ± 0.24
